Measured values: patent US12391686B2, “Compounds and uses thereof” (Foghorn Therapeutics Inc., priority 2019, dated 2025)

target: T1, Nanoluciferase-BRD9 fusion protein (3×FLAG-NLuc-BRD9) in SYO-1 cells (Homo sapiens, UniProt Q9H8M2); assay: SYO1 BRD9 NanoLuc Degradation Assay; assay type: cell-based; conditions: Table 6B; SYO-1 cells expressing 3×FLAG-NLuc-BRD9, 6 hours incubation, 1 μM top dose; read-out: SYO1 BRD9-NanoLuc degradation IC50
T1 construct: expressed in transfected cells; host or cells: SYO-1
T1 sequence (Q9H8M2 1-597): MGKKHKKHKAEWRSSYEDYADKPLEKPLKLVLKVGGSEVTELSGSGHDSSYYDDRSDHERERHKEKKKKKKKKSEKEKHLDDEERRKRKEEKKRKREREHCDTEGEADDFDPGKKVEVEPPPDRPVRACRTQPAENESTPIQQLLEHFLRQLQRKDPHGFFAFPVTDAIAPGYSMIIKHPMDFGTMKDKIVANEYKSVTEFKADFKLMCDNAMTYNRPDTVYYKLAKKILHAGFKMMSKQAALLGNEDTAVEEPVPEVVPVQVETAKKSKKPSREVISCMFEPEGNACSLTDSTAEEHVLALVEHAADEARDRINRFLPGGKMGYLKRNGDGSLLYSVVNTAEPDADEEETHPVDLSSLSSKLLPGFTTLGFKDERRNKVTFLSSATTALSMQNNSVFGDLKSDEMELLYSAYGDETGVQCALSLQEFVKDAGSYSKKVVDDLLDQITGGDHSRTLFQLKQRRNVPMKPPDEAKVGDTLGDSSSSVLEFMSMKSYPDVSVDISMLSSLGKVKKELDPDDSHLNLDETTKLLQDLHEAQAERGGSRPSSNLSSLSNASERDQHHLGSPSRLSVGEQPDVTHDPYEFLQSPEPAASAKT
Protocol: Procedure: A stable SYO-1 cell line expressing 3×FLAG-NLuc-BRD9 was generated. On day 0 cells were seeded in 30 μL media into each well of 384-well cell culture plates. The seeding density was 8000 cells/well. On day 1, cells were treated with 30 nL DMSO or 30 nL of 3-fold serially DMSO-diluted compounds (10 points in duplicates with 1 μM as final top dose). Subsequently plates were incubated for 6 hours in a standard tissue culture incubator and equilibrated at room temperature for 15 minutes. Nanoluciferase activity was measured by adding 15 μL of freshly prepared Nano-Glo Luciferase Assay Reagent (Promega N1130), shaking the plates for 10 minutes and reading the bioluminescence using an EnVision reader.
Results: The Inhibition % was calculated using the following formula: % Inhibition=100×(LumHC−Lumsample)/(LumHC−LumLC). DMSO treated cells are employed as High Control (HC) and 1 μM of a known BRD9 degrader standard treated cells are employed as Low Control (LC).

Row | SMILES | DC50 [nM]
1 | COc1cc(-c2cn(C)c(=O)c3cnc(N(C)C)cc23)cc(OC)c1CN1CC(S(=O)(=O)NCCN2CCN(c3ccc4c(c3)C(=O)N(C3CCC(=O)NC3=O)C4=O)CC2)C1 (centres unmarked) [Compound D32] | < 10
2 | COc1cc(-c2cn(C)c(=O)c3cnc(N(C)C)cc23)cc(OC)c1CN1CC2CN(C(=O)CCOCCOc3ccc4c(c3)C(=O)N(C3CCC(=O)NC3=O)C4=O)CCC21 (centres unmarked) [Compound D33] | < 10
3 | COc1cc(-c2cn(C)c(=O)c3cnc(N(C)C)cc23)cc(OC)c1CN(C)C12CC(C(=O)NCCCCCOc3cccc4c3C(=O)N(C3CCC(=O)NC3=O)C4=O)(C1)C2 (centres unmarked) [Compound D34] | < 10
4 | COc1cc(-c2cn(C)c(=O)c3cnc(N(C)C)cc23)cc(OC)c1CN(C)CC12CC(C(=O)NCCCCCNc3cccc4c3C(=O)N(C3CCC(=O)NC3=O)C4=O)(C1)C2 (centres unmarked) [Compound D35] | < 10
5 | COc1cc(-c2cn(C)c(=O)c3cnc(N(C)C)cc23)cc(OC)c1CN(C)CC12CC(C(=O)NCCCCCOc3cccc4c3C(=O)N(C3CCC(=O)NC3=O)C4=O)(C1)C2 (centres unmarked) [Compound D36] | < 10
6 | COc1cc(-c2cn(C)c(=O)c3cnc(N(C)C)cc23)cc(OC)c1CN1CC(S(=O)(=O)NCCOCCOCCNc2cccc3c2C(=O)N(C2CCC(=O)NC2=O)C3=O)C1 (centres unmarked) [Compound D37] | < 10
7 | COc1cc(-c2cn(C)c(=O)c3cnc(N(C)C)cc23)cc(OC)c1CN(C)CC12CC(C(=O)NCCCCCOc3ccc4c(c3)C(=O)N(C3CCC(=O)NC3=O)C4=O)(C1)C2 (centres unmarked) [Compound D38] | < 10
8 | COc1cc(-c2cn(C)c(=O)c3cnc(N(C)C)cc23)cc(OC)c1CN(C)CC12CC(C(=O)NCCCCCNc3ccc4c(c3)C(=O)N(C3CCC(=O)NC3=O)C4=O)(C1)C2 (centres unmarked) [Compound D39] | < 10
9 | COc1cc(-c2cn(C)c(=O)c3cnc(N(C)C)cc23)cc(OC)c1CN(C)C12CC(C(=O)NCCCCCOc3ccc4c(c3)C(=O)N(C3CCC(=O)NC3=O)C4=O)(C1)C2 (centres unmarked) [Compound D40] | < 10
10 | COc1cc(-c2cn(C)c(=O)c3cnc(N(C)C)cc23)cc(F)c1CN1CCC(CCN2CCN(c3ccc4c(c3)C(=O)N(C3CCC(=O)NC3=O)C4=O)CC2)CC1 (centres unmarked) [Compound D41] | < 10
11 | COc1cc(-c2cn(C)c(=O)c3cnc(N(C)C)cc23)cc(OC)c1CN1CC(CC(=O)N2CCC3(CC2)CC(Oc2ccc4c(c2)C(=O)N(C2CCC(=O)NC2=O)C4=O)C3)C1 (centres unmarked) [Compound D42] | < 10
12 | COc1cc(-c2cn(C)c(=O)c3cnc(N(C)C)cc23)cc(OC)c1CN1CC(CCN2CCN(c3ccc4c(c3)C(=O)N(C3CCC(=O)NC3=O)C4=O)CC2)C1 (centres unmarked) [Compound D43] | ≥ 1000
13 | COc1cc(-c2cn(C)c(=O)c3cnc(N(C)C)cc23)cc(OC)c1CN1CC(CCCN2CCN(c3ccc4c(c3)C(=O)N(C3CCC(=O)NC3=O)C4=O)CC2)C1 (centres unmarked) [Compound D44] | 10 to 100
14 | COc1cc(-c2cn(C)c(=O)c3cnc(N(C)C)cc23)c2c(c1)N(CCCCCCCCOc1ccc3c(c1)C(=O)N(C1CCC(=O)NC1=O)C3=O)CC2 (centres unmarked) [Compound D45] | 100 to 1000
15 | COc1cc(-c2cn(C)c(=O)c3cnc(N(C)C)cc23)c2c(c1)N(CCCCCN1CCC3(CC1)CC(Oc1ccc4c(c1)C(=O)N(C1CCC(=O)NC1=O)C4=O)C3)CC2 (centres unmarked) [Compound D46] | < 10
16 | COc1cc(-c2cn(C)c(=O)c3cnc(N(C)C)cc23)c2c(c1)N(CCCCCCCCOc1cccc3c1C(=O)N(C1CCC(=O)NC1=O)C3=O)CC2 (centres unmarked) [Compound D47] | 10 to 100
17 | COc1cc(-c2cn(C)c(=O)c3cnc(N(C)C)cc23)cnc1CN1CCC(CCN2CCN(c3ccc4c(c3)C(=O)N(C3CCC(=O)NC3=O)C4=O)CC2)CC1 (centres unmarked) [Compound D48] | < 10
18 | COc1cc(-c2cn(C)c(=O)c3cnc(N(C)C)cc23)cc(OC)c1CN1CC(CN2CC3(CCN(c4ccc5c(c4)C(=O)N(C4CCC(=O)NC4=O)C5=O)C3)C2)C1 (centres unmarked) [Compound D49] | < 10
19 | COc1cc(-c2cn(C)c(=O)c3cnc(N(C)C)cc23)cc(OC)c1CN1CC(CN2CCC3(CC2)CN(c2ccc4c(c2)C(=O)N(C2CCC(=O)NC2=O)C4=O)C3)C1 (centres unmarked) [Compound D50] | < 10
20 | COc1cc(-c2cn(C)c(=O)c3cnc(N(C)C)cc23)cc(OC)c1CN1CC(CN2CCC3(C2)CN(c2ccc4c(c2)C(=O)N(C2CCC(=O)NC2=O)C4=O)C3)C1 (centres unmarked) [Compound D51] | < 10
21 | COc1cc(-c2cn(C)c(=O)c3cnc(N(C)C)cc23)cc(OC)c1CN1CCC(N2CCN(c3ccc4c(c3)C(=O)N(C3CCC(=O)NC3=O)C4=O)CC2)CC1 (centres unmarked) [Compound D52] | < 10

Row | SMILES | DC50 [nM]
22 | COc1cc(-c2cn(C)c(=O)c3cnc(N(C)C)cc23)cc(OC)c1CN1CCN(C2CCN(c3ccc4c(c3)C(=O)N(C3CCC(=O)NC3=O)C4=O)CC2)CC1 (centres unmarked) [Compound D53] | < 10
23 | COc1cc(-c2cn(C)c(=O)c3cnc(N(C)C)cc23)cc(OC)c1CN1CCC(CN2CCC3(CC2)CC(Oc2ccc4c(c2)C(=O)N(C2CCC(=O)NC2=O)C4=O)C3)CC1 (centres unmarked) [Compound D54] | < 10
24 | COc1cc(-c2cn(C)c(=O)c3cnc(N(C)C)cc23)cc(OC)c1CN1CCC(C(=O)N2CCC3(CC2)CC(Oc2ccc4c(c2)C(=O)N(C2CCC(=O)NC2=O)C4=O)C3)CC1 (centres unmarked) [Compound D55] | < 10
25 | COc1cc(-c2cn(C)c(=O)c3cnc(N(C)C)cc23)cc(OC)c1CN1CCC2(CC1)CC(N1CCN(c3ccc4c(c3)C(=O)N(C3CCC(=O)NC3=O)C4=O)CC1)C2 (centres unmarked) [Compound D56] | < 10
26 | COc1cc(-c2cn(C)c(=O)c3cnc(N(C)C)cc23)cc(OC)c1CN1CCC(CN2CCN(c3ccc4c(c3)C(=O)N(C3CCC(=O)NC3=O)C4=O)CC2)CC1 (centres unmarked) [Compound D57] | < 10
27 | COc1cc(-c2cn(C)c(=O)c3cnc(N(C)C)cc23)cc(OC)c1CN1CCC2(CC1)CC(Oc1ccc3c(c1)C(=O)N(C1CCC(=O)NC1=O)C3=O)C2 (centres unmarked) [Compound D58] | < 10
28 | COc1cc(-c2cn(C)c(=O)c3cnc(N(C)C)cc23)cc(OC)c1CN1CCC(CCN2Cc3cc4c(cc3C2)C(=O)N(C2CCC(=O)NC2=O)C4=O)CC1 (centres unmarked) [Compound D59] | < 10
29 | COc1cc(-c2cn(C)c(=O)c3cnc(N(C)C)cc23)cc(OC)c1CN1CCC(CN2Cc3cc4c(cc3C2)C(=O)N(C2CCC(=O)NC2=O)C4=O)CC1 (centres unmarked) [Compound D61] | < 10
30 | COc1cc(-c2cn(C)c(=O)c3cnc(N(C)C)cc23)cc(OC)c1CN1CCC(CCCN2Cc3cc4c(cc3C2)C(=O)N(C2CCC(=O)NC2=O)C4=O)CC1 (centres unmarked) [Compound D62] | < 10
31 | COc1cc(-c2cn(C)c(=O)c3cnc(N(C)C)cc23)cc(OC)c1CN1CC2(CC(N3Cc4cc5c(cc4C3)C(=O)N(C3CCC(=O)NC3=O)C5=O)C2)C1 (centres unmarked) [Compound D63] | < 10
32 | COc1cc(-c2cn(C)c(=O)c3cnc(N(C)C)cc23)cc(OC)c1CN1CC2(CCC(N3Cc4cc5c(cc4C3)C(=O)N(C3CCC(=O)NC3=O)C5=O)CC2)C1 (centres unmarked) [Compound D64] | 100 to 1000
33 | COc1cc(-c2cn(C)c(=O)c3cnc(N(C)C)cc23)cc(OC)c1CN1CCC2(CC1)CCN(CC#Cc1ccc3c(c1)C(=O)N(C1CCC(=O)NC1=O)C3=O)C2 (centres unmarked) [Compound D65] | < 10
34 | COc1cc(-c2cn(C)c(=O)c3cnc(N(C)C)cc23)cc(OC)c1CN1CC(C(=O)N2CC3(CCN(c4ccc5c(c4)C(=O)N(C4CCC(=O)NC4=O)C5=O)C3)C2)C1 (centres unmarked) [Compound D66] | < 10
35 | COc1cc(-c2cn(C)c(=O)c3cnc(N(C)C)cc23)cc(OC)c1CN1CC(CN2CCC3(CC2)CC(Oc2ccc4c(c2)C(=O)N(C2CCC(=O)NC2=O)C4=O)C3)C1 (centres unmarked) [Compound D67] | < 10
36 | COc1cc(-c2cn(C)c(=O)c3cnc(N(C)C)cc23)cc(OC)c1CN1CCC2(CC1)CN(c1ccc3c(c1)C(=O)N(C1CCC(=O)NC1=O)C3=O)C2 (centres unmarked) [Compound D68] | < 10
37 | COc1cc(-c2cn(C)c(=O)c3cnc(N(C)C)cc23)cc(OC)c1CN1CC(N2CCN(c3ccc4c(c3)C(=O)N(C3CCC(=O)NC3=O)C4=O)CC2)C1 (centres unmarked) [Compound D69] | < 10
38 | COc1cc(-c2cn(C)c(=O)c3cnc(N(C)C)cc23)cc(OC)c1CN1CCN(c2ccc3c(c2)C(=O)N(C2CCC(=O)NC2=O)C3=O)CC1 (centres unmarked) [Compound D70] | < 10
39 | COc1cc(-c2cn(C)c(=O)c3cnc(N(C)C)cc23)cc(OC)c1CN1CCN(C(C)COc2cccc3c2C(=O)N(C2CCC(=O)NC2=O)C3=O)CC1 (centres unmarked) [Compound D71] | < 10
40 | COc1cc(-c2cn(C)c(=O)c3cnc(N(C)C)cc23)cc(OC)c1CN1CC2(C1)CN(C(C)(C)C#Cc1ccc3c(c1)C(=O)N(C1CCC(=O)NC1=O)C3=O)C2 (centres unmarked) [Compound D72] | < 10
41 | COc1cc(-c2cn(C)c(=O)c3cnc(N(C)C)cc23)cc(OC)c1CN1CC2(CCN(C(C)(C)C#Cc3ccc4c(c3)C(=O)N(C3CCC(=O)NC3=O)C4=O)CC2)C1 (centres unmarked) [Compound D73] | < 10
